Test results from publication PMC5870190, “A three-in-one-bullet for oesophageal cancer: replication fork collapse, spindle attachment failure and enhanced radiosensitivity generated by a ruthenium(II) metallo-intercalator” (Chemical Science, 2017).

Legend:
OE33 cells = test: Micronuclei formation, OE33; format: cell-based, human; details: OE33, 45 μM Ru1, 24 h incubation
Protocol: (§1) propidium iodide (PI) is standard to quantify DNA content using flow cytometry, bleed-through of the MLCT emission of […]
(§2) To remove these artefacts, a higher concentration of Ru1 (100 µM, 10 mins) was additionally applied post-incubation and fixation to treated and control samples, acting as a substitute DNA dye instead of PI. After staining, cells were centrifuged (1000 rpm, 5 mins) and re-suspended in PBS.
(§3) Samples were analysed using a Biosciences LSRII Flow Cytometer using the FL2 channel to collect (recognisable) cell-cycle […]
(§4) profiles. […] A minimum of
(§5) 10,000 cells were counted for each sample and data were processed using FloJo software.
Microscopy and immunofluorescence. […]
(§6) emission was collected from 500-530 nm to prevent spectral overlap with Ru1 emission. γH2AX foci were counted using […]
(§7) The absorbance at 540 nm was quantified by plate reader (reference wavelength 650 nm). The metabolic activity of the cell population was determined as a percentage of a negative (solvent) control. […]
Cell cultures were treated as stated, media containing detached/dead cells were removed and retained, and adherent collected by Trypsin and centrifugation. […] Trypan Blue negative and Trypan Blue positive cells were counted by haemocytometer. A minimum of 200 cells were counted for each sample. […]

[1] = system: V79 Chinese hamster cells; test: HPRT forward mutation assay; format: cell-based
Protocol: as §1, §2, §3, §4, §5
Microscopy and immunofluorescence. Cells were seeded on ibidi 35 mm µ-dishes (Thistle Scientific), allowed to adhere for 24 h and treated as stated in the main text. Cell media was removed, cells washed with PBS and fixed with formaldehyde (4%, 10 mins). Cells were permeablised with Triton (0.5% in PBS, 5 mins) and washed with PBS. […]
as §6, §7
Cell cultures were treated as stated, media containing detached/dead cells were removed and retained, and adherent collected by Trypsin and centrifugation. […] Trypan Blue negative and Trypan Blue positive cells were counted by haemocytometer. A minimum of 200 cells were counted for each sample.
HPRT (hypoxanthine-guanine phosphoribosyl transferase) forward mutation assay. […] The cultures were washed with PBS, cells were detached by trypsin (0.05%) and cell number was determined. […] After 7 days' incubation, the resulting colonies were stained with methylene blue and those containing 100 or more cells were counted. Cloning efficiency was determined and is usually expressed in percent relative to the […]

OE21 cells = test: DNA fibre assay (replication fork progression); format: cell-based, human; details: Ru1 21 μM or dppz 7 μM during second (IdU) pulse, 30 min
Protocol: DNA fibre assay. The DNA fibre assay was performed as described previously.5 Briefly, OE21 cells were labelled with 30 µM CldU for 30 mins and then 250 µM IdU for an additional 30 mins. Either Ru1 (21 µM) or dppz (7 µM) was added during the second (IdU) nucleotide step (30 mins). DNA replication was terminated using ice-cold PBS and cells lysed (200 mM Tris-HCl pH 7.4, 50 mM EDTA and 0.5% SDS). DNA fibres were spread onto glass slides, fixed with methanol:acetic acid (3:1) and denatured with 2.5 M HCl. After blocking with 2% BSA, fibres were stained with anti-rat and anti-mouse 5-bromo-2′- deoxyuridine (BrdU) that specifically recognise either CldU (Abcam, dilution 1:500) or IdU (BD Sciences, 1:100). Anti-rat Cy3 (Jackson Immuno Research, 1:300) and anti-mouse Alexa-488 (Molecular Probes, 1:300) were used as the respective secondary antibodies. CldU- and IdU-labelled tracts were visualised using a Leica DMRB microscope with a DFC360FX camera and tract length measured by ImageJ software. Statistical analysis was performed by GraphPad Prism software using an unpaired t-test.
Western blotting. Treated samples were washed with cold PBS and lysed in RIPA (radioimmunoprecipitation assay) buffer containing protease inhibitors (10 μg/mL leupeptin, 2 μg/mL pepstatin, 50 μg/mL antipain, 2 μg/mL aprotinin, 20 μg/mL chyprostatin, 2 μg/mL benzamidine, 1 mM phenylmethanesulfonyl fluoride) and phosphatase inhibitors (50 mM NaF, 1 mM […]
Bis-Tris gels and LDS-PAGE. Gels were transferred onto nitrocellulose membrane and probed with primary antibodies in 5% BSA (bovine serum albumin) solutions at the following dilutions: 1/1000 dilution for majority of Cell Signaling antibodies and γH2AX. 1/500 for anti-p-ATR and anti-cleaved caspase 3. 1/200 anti-Chk1. 1/5000-1/10,000 anti- α-tubulin or β-actin.
Reactions were visualised with a suitable secondary antibody conjugated with horseradish peroxidase (1/5000 dilution, Thermo). […]

[2] = cited from earlier work

## [Ru(phen)2(tpphz)]^2+ [Ru1]
OE33 cells
  Cells with micronuclei, Percentage: 3.4%
[1]; 2 μM of each complex for 24 h
  M.F. (mutation frequency): 36.7 ± 7.3 6-TG resistant mutations per 1 × 10^5 viable cells
  Rel. M.F. (ratio of induced to spontaneous mutations): 5.8
[1]; HPRT assay, V79, 2 μM, 24 h
  mutation rate lower than for cisplatin: two-fold
OE21 cells
  increase in completely stalled/terminated replication forks (CldU tract only) compared to mock-treated: 1.7 fold
[2]
  log P: –1.24
